Measured values from patent US5877183A, “Treatment of lipid and glucose metabolism disorders with dopamine and serotonin agonists” (Ergo Research Corporation, priority 1997, dated 1999).

What was measured:
[1] = cited from earlier work
[2] = two-week treatment of C57BL/6 ob/ob mice (body weight, fat and lean body mass, food consumption, blood glucose, serum free fatty acids); assay type: in vivo, C57BL/6 ob/ob mice (lacking a functional leptin protein); conditions: two weeks
Procedure: Different groups (8 mice per group) of 4-8 week old C57BL/6 ob/ob mice (lacking a functional leptin protein) were treated with:
1) vehicle at 1 and 11 hours after light onset (HALO);
2) Buspirone ("Busp"; a 5HT1A agonist) (3 mg/kg) at 11 HALO;
3) DOI (a 5HT2 agonist) (8 mg/kg) at 11 HALO;
4) RU24969 ("RU") (5HT1B agonist) (3 mg/kg) at 11 HALO;
5) bromocriptine ("BC") (12 mg/kg BW) at 1 HALO;
6) BC (12 mg/kg) at 1 HALO plus Buspirone (3 mg/kg) at 11 HALO;
7) BC (12 mg/kg) at 1 HALO plus DOI (8 mg/kg) at 11 HALO;
8) BC (12 mg/kg) at 1 HALO plus RU (3 mg/kg) at 11 HALO;
9) SKF38393 ("SKF") (D1 agonist) (20mg/kg BW) at 1 HALO; and
10) SKF(20 mg/kg) at 1 HALO plus RU (3 mg/kg) at 11 HALO for two weeks. Animals were held on 12-hour daily photoperiods and allowed to feed ad libitum. Food consumption was monitored daily for 3 days before the initiation of treatment throughout the 14-day treatment period. Animals were sacrificed between 1 and 3 HALO on the day following the final treatment and plasma was collected for the analyses of insulin, glucose, and lipids while the carcasses were solubilized in ethanolic KOH and analyzed for protein and lipid content. Blood glucose was measured with an Accu-Chek Advantage glucose meter (Boehringer). Serum insulin was measured with a radioimmunoassay kit (Linco Research) using rat insulin standards. Total triglycerides and free fatty acids were measured with kits from Sigma Diagnostics and Wako Chemicals, respectively. Body weight gain or loss as a result of treatment is depicted in FIG. 1. Fat body mass is depicted in FIG. 2.

[3] = timed administration; cited from earlier work
[4] = cited from earlier work; remark: listed apart in the source
[5] = in vivo; cited from earlier work

Row | Compound | body fat stores / fat body mass (effect in words) [2] | body weight gain (effect in words) [2] | food intake / food consumption (effect in words) [2] | further results
1 | CC(C)C[C@H]1C(=O)N2CCC[C@H]2[C@]2(O)O[C@](NC(=O)[C@@H]3C=C4c5cccc6[nH]c(Br)c(c56)C[C@H]4N(C)C3)(C(C)C)C(=O)N12 [Bromocriptine, 2-bromo-alpha-ergocriptine] | ineffective | ineffective | ineffective | locomotor stimulation and stereotyped behavior responses ([1]; after depletion of endogenous dopamine): blocked by depletion of endogenous dopamine; responsiveness in dopamine depleted animals given a D1 dopamine receptor agonist ([1]; dopamine depleted animals plus D1 agonist): restored; body fat stores (effect in words) [3]: reduce body fat stores; food consumption (effect in words) [3]: without a concomitant reduction in food consumption; hyperinsulinemia, hyperlipidemia, and glucose intolerance (effect in words) [3]: reduce hyperinsulinemia, hyperlipidemia, and glucose intolerance
2 | CC[C@H](C)C(=O)O[C@H]1C[C@@H](C)C=C2C=C[C@H](C)[C@H](CC[C@@H]3C[C@@H](O)CC(=O)O3)[C@H]21 [lovastatin] |  |  |  | total cholesterol (effect in words) ([4]; in vivo): reduces total cholesterol; increase in HDL concentrations ([4]; lovastatin (MEVACOR)): 5-10%
3 | CCOC(=O)C(C)(C)Oc1ccc(Cl)cc1 [clofibrate] |  |  |  | side effects [5]: nephrotic syndromes, myalgia, nausea, and abdominal pain
4 | Oc1cc2c(cc1O)C(c1ccccc1)CNCC2 (stereo not drawn) [SKF] |  | significant decrease | significant decrease | 
5 | COc1ccc2[nH]cc(C3=CCNCC3)c2c1 [RU] |  | significant decrease | significant decrease | 
6 | O=C1CC2(CCCC2)CC(=O)N1CCCCN1CCN(c2ncccn2)CC1 [Buspirone] | ineffective | ineffective | ineffective | 
7 | COc1cc(CC(C)N)c(OC)cc1I (stereo not drawn) [DOI] | ineffective | ineffective | ineffective | 
